Laboratory results from ChEMBL document CHEMBL3091402, “Identification of clinical candidates from the benzazepine class of histamine H3 receptor antagonists” (Bioorg Med Chem Lett, 2013).
Active and inactive are the calls of the source. The calls are words filed in the database; no cut-off is given here.

Legend:
Histamine H3 receptor [1] = molecular target: T1, Histamine H3 receptor (Homo sapiens, UniProt Q9Y5N1); assay: Antagonist activity at human histamine H3 receptor expressed in CHOK1 cells assessed as inhibition of GTPgammaS binding; assay type: functional, cell-based, CHO-K1
T1 sequence (Q9Y5N1 whole entry): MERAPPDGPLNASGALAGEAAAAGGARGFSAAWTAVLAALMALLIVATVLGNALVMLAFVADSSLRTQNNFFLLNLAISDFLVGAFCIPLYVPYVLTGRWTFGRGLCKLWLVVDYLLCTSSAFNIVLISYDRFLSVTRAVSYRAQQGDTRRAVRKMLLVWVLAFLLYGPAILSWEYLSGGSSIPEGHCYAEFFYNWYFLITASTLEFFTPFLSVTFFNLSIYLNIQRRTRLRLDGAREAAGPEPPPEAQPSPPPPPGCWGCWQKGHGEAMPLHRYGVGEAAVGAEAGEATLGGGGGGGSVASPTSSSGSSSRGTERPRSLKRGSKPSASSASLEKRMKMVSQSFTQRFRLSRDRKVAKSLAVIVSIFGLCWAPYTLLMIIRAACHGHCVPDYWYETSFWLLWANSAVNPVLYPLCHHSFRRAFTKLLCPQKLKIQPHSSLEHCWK

Rattus norvegicus [2] = assay: Ex vivo binding affinity to histamine H3 receptor in rat cerebral cortex using [3H]-R-alpha-ethylhistamine at 3 mg/kg, po after 3 hrs by HPLC analysis; assay type: functional
[3] = Ratio of drug level in brain to blood in rat at 3 mg/kg, po; assay type: ADME, organism-based; design: dose 3 mg/kg, route oral
Histamine H3 receptor [4] = molecular target: T2, Histamine H3 receptor (Rattus norvegicus, UniProt Q9QYN8); assay: Displacement of [3H]-R-alpha-ethylhistamine from histamine H3 receptor in rat cerebral cortical tissue membranes after 45 mins by liquid scintillation spectrometry
T2 sequence (Q9QYN8 whole entry): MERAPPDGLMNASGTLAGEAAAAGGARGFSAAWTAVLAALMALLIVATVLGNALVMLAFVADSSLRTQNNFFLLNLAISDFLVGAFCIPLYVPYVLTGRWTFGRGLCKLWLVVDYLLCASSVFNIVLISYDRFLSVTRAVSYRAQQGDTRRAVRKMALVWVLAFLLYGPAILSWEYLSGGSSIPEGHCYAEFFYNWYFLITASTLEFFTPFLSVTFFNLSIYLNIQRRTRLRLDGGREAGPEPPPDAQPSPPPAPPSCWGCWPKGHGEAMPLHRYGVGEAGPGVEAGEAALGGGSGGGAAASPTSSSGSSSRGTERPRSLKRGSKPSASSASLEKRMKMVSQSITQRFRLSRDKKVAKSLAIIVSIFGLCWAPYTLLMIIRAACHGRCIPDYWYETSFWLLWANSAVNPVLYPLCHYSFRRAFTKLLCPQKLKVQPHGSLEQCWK

Blood = assay: Drug level in rat blood at 3 mg/kg, po; assay type: ADME, organism-based; design: dose 3 mg/kg, route oral; details: in vivo, read-out: Drug uptake
Rattus norvegicus [5] = assay: Ex vivo binding affinity to histamine H3 receptor in rat cerebral cortex using [3H]-R-alpha-ethylhistamine at 0.3 mg/kg, po after 3 hrs by HPLC analysis; assay type: functional
Rattus norvegicus [6] = assay: Ex vivo binding affinity to histamine H3 receptor in po dosed rat cerebral cortex using [3H]-R-alpha-ethylhistamine after 2 hrs by HPLC analysis; assay type: functional
Rattus norvegicus [7] = assay: Reversal of RAMH-induced dipsogenia in po dosed Lister Hooded rat treated 2 hrs before RAMH challenge measured after 1 hr; assay type: functional
Liver microsome [8] = assay: Intrinsic clearance in rat liver microsomes; assay type: ADME
[9] = Tmax in po dosed cynomolgus monkey; assay type: ADME, organism-based, Macaca fascicularis; details: in vivo
[10] = Cmax in po dosed Beagle dog; assay type: ADME, organism-based, Canis lupus familiaris; design: route oral; details: in vivo
[11] = Ratio of drug level in brain to blood in iv dosed Sprague-Dawley rat; assay type: ADME, organism-based
[12] = Oral bioavailability in Beagle dog; assay type: ADME, organism-based, Canis lupus familiaris; details: in vivo
[13] = Terminal half life in iv dosed cynomolgus monkey; assay type: ADME, organism-based, Macaca fascicularis; details: in vivo, read-out: beta t1/2 (converted)
Rattus norvegicus [14] = assay: Cognitive enhancing effect in Lister Hooded rat assessed as increase of time spent exploring novel versus familiar objects in T2 at 0.3 to 1 mg/kg, po bid; assay type: functional, organism-based
[15] = Ratio of drug level in brain to blood in human; assay type: ADME, tissue-based
[16] = Terminal half life in po dosed cynomolgus monkey; assay type: ADME, organism-based, Macaca fascicularis; details: in vivo, read-out: beta t1/2 (converted)
[17] = Cmax in iv dosed Beagle dog; assay type: ADME, organism-based, Canis lupus familiaris; design: route intravenous; details: in vivo
[18] = Tmax in po dosed Sprague-Dawley rat; assay type: ADME, organism-based; details: in vivo
[19] = Oral bioavailability in Sprague-Dawley rat; assay type: ADME, organism-based; details: in vivo
[20] = Cmax in po dosed cynomolgus monkey; assay type: ADME, organism-based, Macaca fascicularis; design: route oral; details: in vivo
[21] = Total blood clearance in iv dosed Sprague-Dawley rat; assay type: ADME, organism-based; details: whole blood
[22] = Time dependent inhibition of CYP450 (unknown origin); assay type: ADME, Homo sapiens
[23] = Aqueous solubility of the compound; assay type: physicochemical
[24] = Cmax in iv dosed cynomolgus monkey; assay type: ADME, organism-based, Macaca fascicularis; design: route intravenous; details: in vivo
[25] = Volume of distribution at steady-state in iv dosed Sprague-Dawley rat; assay type: ADME, organism-based; details: in vivo, read-out: Vdss
[26] = Volume of distribution at steady-state in iv dosed Beagle dog; assay type: ADME, organism-based, Canis lupus familiaris; details: in vivo, read-out: Vdss
Rattus norvegicus [27] = assay: Cognitive enhancing effect against scopolamine-induced memory deficit in Wistar rat assessed as passive avoidance response at 3 mg/kg, po after 24 hrs; assay type: functional, organism-based; design: dose 3 mg/kg
Histamine H3 receptor [28] = molecular target: T1, Histamine H3 receptor; assay: Displacement of [3H]-R-alpha-ethylhistamine from human histamine H3 receptor expressed in HEK293 cells after 45 mins by liquid scintillation spectrometry
[29] = Volume of distribution at steady-state in iv dosed cynomolgus monkey; assay type: ADME, organism-based, Macaca fascicularis; details: in vivo, read-out: Vdss
Histamine H3 receptor [30] = molecular target: T1, Histamine H3 receptor; assay: Displacement of [3H]-R-alpha-ethylhistamine from histamine H3 receptor in human cerebral cortical tissue membranes after 45 mins by liquid scintillation spectrometry
Rattus norvegicus [31] = species: Rattus norvegicus; assay: Ex vivo receptor occupancy of histamine H3 receptor in rat brain; assay type: functional, organism-based
Histamine H2 receptor = Histamine H2 receptor (Homo sapiens, UniProt P25021); assay: Binding affinity to human histamine H2 receptor
Chain of Histamine H2 receptor (P25021 whole entry): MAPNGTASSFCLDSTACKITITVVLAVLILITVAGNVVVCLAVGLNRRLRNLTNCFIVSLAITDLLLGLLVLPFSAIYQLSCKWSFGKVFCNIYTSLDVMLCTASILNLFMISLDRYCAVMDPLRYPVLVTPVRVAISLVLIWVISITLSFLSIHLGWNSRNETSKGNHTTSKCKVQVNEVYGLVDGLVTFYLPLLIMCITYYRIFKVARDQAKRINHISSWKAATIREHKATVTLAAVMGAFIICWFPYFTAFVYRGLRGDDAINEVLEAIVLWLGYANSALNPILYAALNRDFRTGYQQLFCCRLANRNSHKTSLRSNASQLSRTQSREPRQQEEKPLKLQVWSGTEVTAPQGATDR

[32] = Total blood clearance in iv dosed Beagle dog; assay type: ADME, organism-based, Canis lupus familiaris; details: whole blood
[33] = Terminal half life in iv dosed Beagle dog; assay type: ADME, organism-based, Canis lupus familiaris; details: in vivo, read-out: beta t1/2 (converted)
Rattus norvegicus [34] = assay: Cognitive enhancing effect against scopolamine-induced memory deficit in po dosed Wistar rat assessed as passive avoidance response after 24 hrs; assay type: functional, organism-based
[35] = Terminal half life in po dosed Sprague-Dawley rat; assay type: ADME, organism-based; details: in vivo, read-out: beta t1/2 (converted)
hERG (KCNH2) = hERG (KCNH2) (Homo sapiens, UniProt Q12809); assay: Inhibition of human ERG at 10 uM by patch clamp experiment
Chain of hERG (KCNH2) (Q12809 whole entry): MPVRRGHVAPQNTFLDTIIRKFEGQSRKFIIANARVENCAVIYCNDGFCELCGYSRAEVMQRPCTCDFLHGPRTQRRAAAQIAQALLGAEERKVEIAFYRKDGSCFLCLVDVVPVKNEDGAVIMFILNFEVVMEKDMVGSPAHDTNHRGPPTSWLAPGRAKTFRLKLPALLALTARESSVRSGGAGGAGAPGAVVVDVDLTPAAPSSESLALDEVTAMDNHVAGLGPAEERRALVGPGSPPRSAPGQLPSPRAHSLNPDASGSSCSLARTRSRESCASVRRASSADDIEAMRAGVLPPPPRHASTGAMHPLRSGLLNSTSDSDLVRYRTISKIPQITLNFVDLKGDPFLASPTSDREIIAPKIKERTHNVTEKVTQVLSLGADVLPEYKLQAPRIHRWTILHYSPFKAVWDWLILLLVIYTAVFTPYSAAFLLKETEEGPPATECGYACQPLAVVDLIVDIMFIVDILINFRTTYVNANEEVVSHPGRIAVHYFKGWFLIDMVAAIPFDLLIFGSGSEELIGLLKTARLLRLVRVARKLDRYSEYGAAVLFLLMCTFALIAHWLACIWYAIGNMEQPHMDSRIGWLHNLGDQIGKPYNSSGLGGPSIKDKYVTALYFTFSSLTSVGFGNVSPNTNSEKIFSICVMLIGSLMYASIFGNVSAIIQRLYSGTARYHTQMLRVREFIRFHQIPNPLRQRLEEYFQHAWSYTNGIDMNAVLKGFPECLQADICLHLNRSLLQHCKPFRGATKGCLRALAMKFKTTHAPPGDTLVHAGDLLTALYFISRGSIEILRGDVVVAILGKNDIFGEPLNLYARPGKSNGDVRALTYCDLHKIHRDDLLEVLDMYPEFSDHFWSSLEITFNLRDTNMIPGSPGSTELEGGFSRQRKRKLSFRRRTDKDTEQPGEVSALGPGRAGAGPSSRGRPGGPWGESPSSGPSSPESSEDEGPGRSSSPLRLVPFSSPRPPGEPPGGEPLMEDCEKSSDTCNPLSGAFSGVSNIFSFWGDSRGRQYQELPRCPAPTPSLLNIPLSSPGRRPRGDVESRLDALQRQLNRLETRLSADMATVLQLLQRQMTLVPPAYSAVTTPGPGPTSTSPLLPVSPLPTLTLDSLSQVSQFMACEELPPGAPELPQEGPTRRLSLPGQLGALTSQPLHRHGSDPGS

[36] = Cmax in po dosed Sprague-Dawley rat; assay type: ADME, organism-based; design: route oral; details: in vivo
[37] = Cmax in iv dosed Sprague-Dawley rat; assay type: ADME, organism-based; design: route intravenous; details: in vivo
Liver microsome [38] = assay: Intrinsic clearance in human liver microsomes; assay type: ADME
[39] = Terminal half life in iv dosed Sprague-Dawley rat; assay type: ADME, organism-based; details: in vivo, read-out: beta t1/2 (converted)
[40] = Total blood clearance in iv dosed cynomolgus monkey; assay type: ADME, organism-based, Macaca fascicularis; details: whole blood
[41] = Oral bioavailability in cynomolgus monkey; assay type: ADME, organism-based, Macaca fascicularis; details: in vivo
Histamine H4 receptor = Histamine H4 receptor (Homo sapiens, UniProt Q9H3N8); assay: Binding affinity to human histamine H4 receptor
Chain of Histamine H4 receptor (Q9H3N8 whole entry): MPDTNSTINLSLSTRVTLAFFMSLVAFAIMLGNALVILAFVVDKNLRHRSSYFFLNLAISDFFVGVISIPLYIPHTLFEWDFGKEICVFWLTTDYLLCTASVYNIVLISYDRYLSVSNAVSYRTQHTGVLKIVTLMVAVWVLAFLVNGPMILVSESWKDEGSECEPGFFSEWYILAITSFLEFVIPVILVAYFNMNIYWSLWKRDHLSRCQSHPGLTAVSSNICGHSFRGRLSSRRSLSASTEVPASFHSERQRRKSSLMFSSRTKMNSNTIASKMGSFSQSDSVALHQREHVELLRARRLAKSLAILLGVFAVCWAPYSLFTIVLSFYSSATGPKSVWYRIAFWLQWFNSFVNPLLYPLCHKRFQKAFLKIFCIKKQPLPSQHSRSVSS

Histamine H3 receptor [42] = molecular target: T2, Histamine H3 receptor; assay: Displacement of [3H]-R-alpha-ethylhistamine from rat histamine H3 receptor expressed in HEK293 cells after 45 mins by liquid scintillation spectrometry; assay type: cell-based
[43] = Terminal half life in po dosed Beagle dog; assay type: ADME, organism-based, Canis lupus familiaris; details: in vivo, read-out: beta t1/2 (converted)
[44] = Tmax in po dosed Beagle dog; assay type: ADME, organism-based, Canis lupus familiaris; details: in vivo
Histamine H1 receptor = Histamine H1 receptor (Homo sapiens, UniProt P35367); assay: Binding affinity to human histamine H1 receptor
Chain of Histamine H1 receptor (P35367 whole entry): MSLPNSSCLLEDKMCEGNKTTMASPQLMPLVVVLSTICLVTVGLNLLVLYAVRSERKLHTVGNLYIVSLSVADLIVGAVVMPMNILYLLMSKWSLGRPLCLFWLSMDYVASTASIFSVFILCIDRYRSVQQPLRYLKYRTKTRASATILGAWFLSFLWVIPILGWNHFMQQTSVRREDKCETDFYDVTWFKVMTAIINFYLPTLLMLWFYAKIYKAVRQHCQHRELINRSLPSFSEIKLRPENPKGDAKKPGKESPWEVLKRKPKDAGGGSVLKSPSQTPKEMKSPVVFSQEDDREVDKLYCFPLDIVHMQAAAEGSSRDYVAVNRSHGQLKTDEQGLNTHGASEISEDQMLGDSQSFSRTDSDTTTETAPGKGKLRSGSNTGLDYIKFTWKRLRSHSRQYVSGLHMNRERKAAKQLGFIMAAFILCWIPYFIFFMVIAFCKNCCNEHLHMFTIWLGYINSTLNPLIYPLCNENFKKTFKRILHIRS

`CNC(=O)c1ccc(Oc2ccc3c(c2)CCN(C2CCCC2)CC3)nc1` showed a Ki (Histamine H3 receptor [1]) of 0.501 nM and an Activity (Rattus norvegicus [2]) of 61%.
Work on `c1ccc(Oc2ccc3c(c2)CCN(C2CCC2)CC3)nc1` yielded a Ki (Histamine H3 receptor [1]) of 0.794 nM.
Molecule `CNC(=O)c1ccc(Oc2ccc3c(c2)CCN(C2CCC2)CC3)cc1` has a Kp [3] of 2.5, a Ki (Histamine H3 receptor [1]) of 0.501 nM and an Activity (Rattus norvegicus [2]) of 68%. The Ki (Histamine H3 receptor [4]) was 5.01 nM and the concentration (Blood) was 540 nM.
For `c1cnc(Oc2ccc3c(c2)CCN(C2CCC2)CC3)cn1`, the Ki (Histamine H3 receptor [1]) was 1.58 nM.
In the case of `c1cnc(Oc2ccc3c(c2)CCN(C2CCC2)CC3)nc1`, the Ki (Histamine H3 receptor [1]) is reported as 2.51 nM.
`c1cc(-c2ccc(Oc3ccc4c(c3)CCN(C3CCC3)CC4)nc2)[nH]n1` gave a Ki (Histamine H3 receptor [1]) of 0.251 nM, a Ki (Histamine H3 receptor [4]) of 2.51 nM and an Activity (Rattus norvegicus [5]) of 23%.
For `c1ccc(Oc2ccc3c(c2)CCN(C2CCC2)CC3)cc1`, the Ki (Histamine H3 receptor [1]) was 3.16 nM.
Molecule `O=C1OCCN1c1ccc(Oc2ccc3c(c2)CCN(C2CCC2)CC3)nc1` has a Ki (Histamine H3 receptor [1]) of 0.158 nM, a Ki (Histamine H3 receptor [4]) of 0.794 nM and an Activity (Rattus norvegicus [5]) of 44%.
Work on `CNC(=O)c1ccc(Oc2ccc3c(c2)CCN(C2CCC2)CC3)cn1` yielded an ED50 (Rattus norvegicus [6]) of 0.43 mg/kg, a Kp [3] of 3.4 and a Ki (Histamine H3 receptor [1]) of 0.501 nM. It also gave an Activity (Rattus norvegicus [2]) of 82%, a Ki (Histamine H3 receptor [4]) of 3.98 nM and an ED50 (Rattus norvegicus [7]) of 0.25 mg/kg. It also gave a concentration (Blood) of 570 nM.
In the case of `CC(C)NC(=O)c1ccc(Oc2ccc3c(c2)CCN(C2CCC2)CC3)nc1`, the Ki (Histamine H3 receptor [1]) is reported as 0.126 nM, the Ki (Histamine H3 receptor [4]) is reported as 0.631 nM and the CLH (Liver microsome [8]) is reported as under 3 mL/min/g. It also gave an Activity (Rattus norvegicus [5]) of 19%.
With `O=C1CCCN1c1ccc(Oc2ccc3c(c2)CCN(C2CCC2)CC3)nc1` [GSK239512] the Tmax [9] was 1.3 h, the Cmax [10] was 120 nM and the Kp [11] was 1.83. For the same molecule, the bioavailability [12] was 33%, the half-life [13] was 1.7 h and the Activity (Rattus norvegicus [14]) was “Active”. It also gave a Kp [15] of 1.83, a half-life [16] of 1.7 h and a Cmax [17] of 393 nM. It also gave a Tmax [18] of 1 h, a bioavailability [19] of 51% and a Cmax [20] of 145 nM. The clearance [21] was 39 mL/min/kg, the ED50 (Rattus norvegicus [6]) was 0.08 mg/kg and the IC50 [22] was over 10000 nM. For the same molecule, the solubility [23] was over 10000 µg/mL, the Cmax [24] was 383 nM and the Kp [3] was 1. For the same molecule, the Ki (Histamine H3 receptor [1]) was 0.1 nM, the Vd [25] was 3.1 L/kg and the Vd [26] was 2.8 L/kg. For the same molecule, the Activity (Rattus norvegicus [27]) was “Active”, the Ki (Histamine H3 receptor [28]) was 0.204 nM and the Vd [29] was 3.2 L/kg. For the same molecule, the Ki (Histamine H3 receptor [30]) was 0.12 nM, the EC50 (Rattus norvegicus [31]) was 15 nM and the Ki (Histamine H2 receptor) was over 3160 nM. For the same molecule, the clearance [32] was 22 mL/min/kg, the half-life [33] was 1.7 h and the Activity (Rattus norvegicus [34]) was “Dose-dependent effect”. For the same molecule, the half-life [35] was 2.1 h, the inhibition at 10 µM (hERG (KCNH2)) was under 10% and the Cmax [36] was 348 nM. For the same molecule, the Cmax [37] was 671 nM, the Activity (Rattus norvegicus [2]) was 95% and the CLH (Liver microsome [38]) was 0.6 mL/min/g. For the same molecule, the Ki (Histamine H3 receptor [4]) was 0.363 nM, the half-life [39] was 1.2 h and the ED50 (Rattus norvegicus [7]) was 0.04 mg/kg. It also gave a clearance [40] of 28 mL/min/kg, a bioavailability [41] of 55% and a Ki (Histamine H4 receptor) of over 3160 nM. It also gave a CLH (Liver microsome [8]) of 1.6 mL/min/g, a Ki (Histamine H3 receptor [42]) of 0.148 nM and a half-life [43] of 1.8 h. It also gave a Tmax [44] of 0.7 h, a concentration (Blood) of 410 nM and a Ki (Histamine H1 receptor) of 2510 nM.
With `CCNC(=O)c1ccc(Oc2ccc3c(c2)CCN(C2CCC2)CC3)cn1` the Ki (Histamine H3 receptor [1]) was 0.631 nM, the Activity (Rattus norvegicus [2]) was 62% and the Ki (Histamine H3 receptor [4]) was 3.98 nM.
For `NC(=O)c1ccc(Oc2ccc3c(c2)CCN(C2CCC2)CC3)nc1`, the Ki (Histamine H3 receptor [1]) was 0.501 nM, the Activity (Rattus norvegicus [2]) was 81% and the Ki (Histamine H3 receptor [4]) was 2 nM. For the same molecule, the CLH (Liver microsome [8]) was under 3 mL/min/g.
For `CNC(=O)c1ccc(Oc2ccc3c(c2)CCN(C2CCC2)CC3)nn1`, the ED50 (Rattus norvegicus [6]) was 0.85 mg/kg, the Kp [3] was 2.8 and the Ki (Histamine H3 receptor [1]) was 1.26 nM. The Activity (Rattus norvegicus [2]) was 79%, the Ki (Histamine H3 receptor [4]) was 7.94 nM and the ED50 (Rattus norvegicus [7]) was 0.33 mg/kg. It also gave a concentration (Blood) of 700 nM.
Molecule `CN1CCN(c2ccc(Oc3ccc4c(c3)CCN(C3CCC3)CC4)nc2)C1=O` has an ED50 (Rattus norvegicus [6]) of 1.9 mg/kg, a Ki (Histamine H3 receptor [1]) of 0.1 nM and an Activity (Rattus norvegicus [2]) of 81%. It also gave a Ki (Histamine H3 receptor [4]) of 1 nM.
With `c1cnn(-c2ccc(Oc3ccc4c(c3)CCN(C3CCC3)CC4)nc2)c1` the Ki (Histamine H3 receptor [1]) was 0.501 nM, the Activity (Rattus norvegicus [2]) was 73% and the Ki (Histamine H3 receptor [4]) was 3.16 nM.
